Assay results taken from patent US20080317863A1, “Pharmaceutical Compositions Useful in the Transmucosal Administration of Drugs” (priority 2005, published 2008).

Assays:
[1] = Particle size by laser diffraction analysis; assay type: physicochemical; settings: median by weight, 10% and 90% undersize limits in parentheses
Method: (§1) Particle sizes are shown as median values by weight as measured by laser diffraction analysis (Sympatec Helos […], Germany). […] Surface areas were measured by steady state […] (Johansson et al, Int. […] The results are shown as the mean value from three measurements. The standard deviation is given in parentheses.

[2] = Surface area by permeametry; assay type: physicochemical; settings: permeametry with Blaine apparatus; mean of three, SD in parentheses
Method: as §1

In the case of `O=C([O-])c1ccccc1O.[Na+]` [Sodium salicylate, sodium salicylate], the “Particle Size” value [1] is reported as 3.17 (0.8, 10.8) μm and the “Surface Area” value [2] is reported as 1.77 (0.13) m^2/g.
